# Results published in patent US11208412B2 (DAEGU-GYEONGBUK MEDICAL INNOVATION FOUNDATION, priority 2017, dated 2021).
# What was measured:
# Experiment in all cases: Kinase selectivity, DiscoverX scanMAX Kinase assay panel (% control)
# Format in all cases: binding
# [1] = target: T1, kinases of the scanMAX Kinase assay panel (Homo sapiens, UniProt Q9UQ88); conditions: CDC2L2; 1 uM
# T1 construct: purchased DiscoverX Co. (contract measurement) scanMAX Kinase assay panel
# T1 sequence (Q9UQ88 1-783): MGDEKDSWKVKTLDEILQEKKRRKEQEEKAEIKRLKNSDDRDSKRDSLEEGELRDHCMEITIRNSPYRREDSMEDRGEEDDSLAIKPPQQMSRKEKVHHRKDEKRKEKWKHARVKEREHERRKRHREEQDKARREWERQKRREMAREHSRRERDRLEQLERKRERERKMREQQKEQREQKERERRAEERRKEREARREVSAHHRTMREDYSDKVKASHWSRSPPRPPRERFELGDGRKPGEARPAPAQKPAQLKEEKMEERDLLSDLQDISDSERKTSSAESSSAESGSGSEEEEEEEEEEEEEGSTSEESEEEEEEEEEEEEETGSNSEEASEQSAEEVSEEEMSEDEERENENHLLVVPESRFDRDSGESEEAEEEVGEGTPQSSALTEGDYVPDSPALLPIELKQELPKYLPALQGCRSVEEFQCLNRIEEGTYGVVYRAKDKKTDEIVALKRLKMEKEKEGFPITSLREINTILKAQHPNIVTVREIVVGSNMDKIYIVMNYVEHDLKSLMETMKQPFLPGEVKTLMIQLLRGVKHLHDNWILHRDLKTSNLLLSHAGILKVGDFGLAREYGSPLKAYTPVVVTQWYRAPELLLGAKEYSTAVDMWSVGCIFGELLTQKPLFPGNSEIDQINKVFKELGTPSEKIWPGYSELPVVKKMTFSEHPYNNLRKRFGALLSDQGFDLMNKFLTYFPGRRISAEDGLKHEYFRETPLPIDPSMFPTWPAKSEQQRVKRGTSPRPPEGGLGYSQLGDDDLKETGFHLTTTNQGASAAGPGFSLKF
# Outline: (§1)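 Single-point screen, 1 uM cpd in DMSO. % ctrl = (cpd − pos ctrl)/(neg ctrl − pos ctrl)×100; pos ctrl = 0%, DMSO neg ctrl = 100%. Hit cutoff <35%.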
# [2] = target: T2, kinases of the scanMAX Kinase assay panel (Homo sapiens, UniProt Q13233); conditions: MAP3K1; 1 uM
# T2 construct: purchased DiscoverX Co. (contract measurement) scanMAX Kinase assay panel
# Outline: as §1
# [3] = target: T3, kinases of the scanMAX Kinase assay panel (Homo sapiens, UniProt P11309); conditions: PIM1; 1 uM
# T3 construct: purchased DiscoverX Co. (contract measurement) scanMAX Kinase assay panel
# Outline: as §1
# [4] = target: T4, kinases of the scanMAX Kinase assay panel (Homo sapiens, UniProt Q14680); conditions: MELK; 1 uM
# T4 construct: purchased DiscoverX Co. (contract measurement) scanMAX Kinase assay panel
# Outline: as §1
# [5] = target: T5, kinases of the scanMAX Kinase assay panel (Homo sapiens, UniProt Q9Y4K4); conditions: MAP4K5; 1 uM
# T5 construct: purchased DiscoverX Co. (contract measurement) scanMAX Kinase assay panel
# Outline: as §1
# [6] = target: T6, kinases of the scanMAX Kinase assay panel (Homo sapiens, UniProt P54753); conditions: EPHB3; 1 uM
# T6 construct: purchased DiscoverX Co. (contract measurement) scanMAX Kinase assay panel
# T6 sequence (P54753 34-998): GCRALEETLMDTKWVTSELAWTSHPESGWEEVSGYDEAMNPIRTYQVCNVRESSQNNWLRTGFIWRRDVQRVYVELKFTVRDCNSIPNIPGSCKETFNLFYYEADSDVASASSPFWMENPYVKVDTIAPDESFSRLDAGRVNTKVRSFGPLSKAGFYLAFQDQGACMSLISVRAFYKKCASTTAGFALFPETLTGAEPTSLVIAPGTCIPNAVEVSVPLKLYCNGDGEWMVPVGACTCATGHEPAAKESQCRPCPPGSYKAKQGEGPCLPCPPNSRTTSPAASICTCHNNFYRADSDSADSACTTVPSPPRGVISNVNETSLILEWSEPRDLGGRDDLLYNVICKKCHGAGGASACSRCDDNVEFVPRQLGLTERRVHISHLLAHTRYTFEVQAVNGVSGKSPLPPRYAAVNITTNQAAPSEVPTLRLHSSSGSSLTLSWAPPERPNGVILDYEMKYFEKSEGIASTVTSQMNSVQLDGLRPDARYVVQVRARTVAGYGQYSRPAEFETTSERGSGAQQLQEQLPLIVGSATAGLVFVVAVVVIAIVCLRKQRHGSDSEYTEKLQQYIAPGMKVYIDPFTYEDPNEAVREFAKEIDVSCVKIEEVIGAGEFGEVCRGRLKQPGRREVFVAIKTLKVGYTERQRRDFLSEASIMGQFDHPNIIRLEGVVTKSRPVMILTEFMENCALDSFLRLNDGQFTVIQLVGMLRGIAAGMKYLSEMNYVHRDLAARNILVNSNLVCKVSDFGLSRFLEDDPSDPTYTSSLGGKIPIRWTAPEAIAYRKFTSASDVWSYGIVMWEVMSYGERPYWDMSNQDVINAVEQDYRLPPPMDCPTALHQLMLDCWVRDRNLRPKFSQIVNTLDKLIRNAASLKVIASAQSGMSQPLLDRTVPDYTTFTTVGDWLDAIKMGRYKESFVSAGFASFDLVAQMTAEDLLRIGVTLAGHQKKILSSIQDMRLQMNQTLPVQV
# Outline: as §1
# [7] = target: T7, kinases of the scanMAX Kinase assay panel (Homo sapiens, UniProt Q9Y6M4); conditions: CSNK1G3; 1 uM
# T7 construct: purchased DiscoverX Co. (contract measurement) scanMAX Kinase assay panel
# Outline: as §1
# [8] = target: T8, kinases of the scanMAX Kinase assay panel (Homo sapiens, UniProt Q06187); conditions: BTK; 1 uM
# T8 construct: purchased DiscoverX Co. (contract measurement) scanMAX Kinase assay panel
# Outline: as §1
# T2 sequence (Q13233 whole entry): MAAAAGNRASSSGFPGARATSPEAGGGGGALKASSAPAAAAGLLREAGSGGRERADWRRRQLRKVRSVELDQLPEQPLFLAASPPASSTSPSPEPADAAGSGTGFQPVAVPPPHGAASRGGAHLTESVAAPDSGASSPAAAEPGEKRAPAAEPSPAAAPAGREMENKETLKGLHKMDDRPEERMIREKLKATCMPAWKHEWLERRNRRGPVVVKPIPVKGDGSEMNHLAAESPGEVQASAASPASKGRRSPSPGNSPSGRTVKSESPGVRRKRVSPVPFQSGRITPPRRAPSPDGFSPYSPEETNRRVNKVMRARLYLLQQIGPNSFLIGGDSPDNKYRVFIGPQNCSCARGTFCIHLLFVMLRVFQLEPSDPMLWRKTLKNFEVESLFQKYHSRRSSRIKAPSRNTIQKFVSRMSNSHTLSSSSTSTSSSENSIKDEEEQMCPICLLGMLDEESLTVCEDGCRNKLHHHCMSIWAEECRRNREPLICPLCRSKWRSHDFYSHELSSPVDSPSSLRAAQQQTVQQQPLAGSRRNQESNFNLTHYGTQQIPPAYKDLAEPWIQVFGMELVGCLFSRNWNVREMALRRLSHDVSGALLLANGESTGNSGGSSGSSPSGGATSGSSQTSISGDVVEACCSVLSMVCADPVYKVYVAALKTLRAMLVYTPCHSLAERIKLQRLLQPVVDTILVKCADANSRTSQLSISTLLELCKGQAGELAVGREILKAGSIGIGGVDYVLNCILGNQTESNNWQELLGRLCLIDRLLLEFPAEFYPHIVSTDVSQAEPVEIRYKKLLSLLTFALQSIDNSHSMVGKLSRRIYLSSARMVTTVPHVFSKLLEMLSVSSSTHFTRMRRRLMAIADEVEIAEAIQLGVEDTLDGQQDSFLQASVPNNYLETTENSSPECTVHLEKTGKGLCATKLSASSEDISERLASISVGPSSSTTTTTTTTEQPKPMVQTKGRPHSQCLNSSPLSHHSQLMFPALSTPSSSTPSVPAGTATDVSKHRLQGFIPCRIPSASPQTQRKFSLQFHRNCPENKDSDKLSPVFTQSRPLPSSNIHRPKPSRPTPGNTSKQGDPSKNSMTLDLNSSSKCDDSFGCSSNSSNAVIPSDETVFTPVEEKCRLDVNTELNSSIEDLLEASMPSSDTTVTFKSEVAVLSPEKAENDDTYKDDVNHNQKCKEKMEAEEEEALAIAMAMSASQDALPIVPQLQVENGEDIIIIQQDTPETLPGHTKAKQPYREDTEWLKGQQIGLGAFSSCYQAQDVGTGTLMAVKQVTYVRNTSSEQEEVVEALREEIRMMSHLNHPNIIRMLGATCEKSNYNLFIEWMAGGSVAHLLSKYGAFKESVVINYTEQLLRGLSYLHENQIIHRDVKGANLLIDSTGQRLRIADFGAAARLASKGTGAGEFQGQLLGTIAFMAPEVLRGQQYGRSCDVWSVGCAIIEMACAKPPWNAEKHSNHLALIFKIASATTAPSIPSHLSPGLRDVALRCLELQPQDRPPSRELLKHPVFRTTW
# T8 sequence (Q06187 whole entry): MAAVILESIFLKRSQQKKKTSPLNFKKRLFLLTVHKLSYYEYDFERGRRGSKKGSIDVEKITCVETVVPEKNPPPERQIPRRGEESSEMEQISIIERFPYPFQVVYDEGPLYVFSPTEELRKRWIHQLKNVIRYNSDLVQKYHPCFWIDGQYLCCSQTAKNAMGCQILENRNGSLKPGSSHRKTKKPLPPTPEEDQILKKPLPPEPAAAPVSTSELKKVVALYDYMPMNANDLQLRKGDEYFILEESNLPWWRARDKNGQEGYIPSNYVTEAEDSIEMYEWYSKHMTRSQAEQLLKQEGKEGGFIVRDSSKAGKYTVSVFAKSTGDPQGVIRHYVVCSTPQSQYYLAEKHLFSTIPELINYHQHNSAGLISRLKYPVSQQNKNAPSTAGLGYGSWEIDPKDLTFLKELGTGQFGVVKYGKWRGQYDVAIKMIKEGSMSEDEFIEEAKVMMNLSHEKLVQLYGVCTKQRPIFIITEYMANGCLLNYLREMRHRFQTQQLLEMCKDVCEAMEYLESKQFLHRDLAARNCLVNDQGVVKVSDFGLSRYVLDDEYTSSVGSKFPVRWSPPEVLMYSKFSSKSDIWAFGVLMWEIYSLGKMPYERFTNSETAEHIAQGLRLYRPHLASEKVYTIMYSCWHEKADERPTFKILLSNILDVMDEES
# T4 sequence (Q14680 whole entry): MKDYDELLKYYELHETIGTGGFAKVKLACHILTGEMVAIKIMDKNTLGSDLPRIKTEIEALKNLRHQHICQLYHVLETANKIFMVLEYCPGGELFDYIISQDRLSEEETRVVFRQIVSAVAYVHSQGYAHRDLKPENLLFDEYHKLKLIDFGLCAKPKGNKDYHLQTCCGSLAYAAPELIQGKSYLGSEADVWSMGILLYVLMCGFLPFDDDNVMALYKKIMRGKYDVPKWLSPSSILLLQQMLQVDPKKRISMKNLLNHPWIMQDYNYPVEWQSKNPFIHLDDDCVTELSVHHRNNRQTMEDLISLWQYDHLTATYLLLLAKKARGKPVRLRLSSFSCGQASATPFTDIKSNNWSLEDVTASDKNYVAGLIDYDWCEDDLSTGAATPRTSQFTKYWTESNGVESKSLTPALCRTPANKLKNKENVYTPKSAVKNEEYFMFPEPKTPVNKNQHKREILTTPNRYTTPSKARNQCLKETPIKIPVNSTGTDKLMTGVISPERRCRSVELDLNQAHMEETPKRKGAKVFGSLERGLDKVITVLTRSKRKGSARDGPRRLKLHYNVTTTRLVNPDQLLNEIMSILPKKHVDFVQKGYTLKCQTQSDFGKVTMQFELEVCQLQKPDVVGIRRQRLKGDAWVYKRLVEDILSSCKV
# T3 sequence (P11309 whole entry): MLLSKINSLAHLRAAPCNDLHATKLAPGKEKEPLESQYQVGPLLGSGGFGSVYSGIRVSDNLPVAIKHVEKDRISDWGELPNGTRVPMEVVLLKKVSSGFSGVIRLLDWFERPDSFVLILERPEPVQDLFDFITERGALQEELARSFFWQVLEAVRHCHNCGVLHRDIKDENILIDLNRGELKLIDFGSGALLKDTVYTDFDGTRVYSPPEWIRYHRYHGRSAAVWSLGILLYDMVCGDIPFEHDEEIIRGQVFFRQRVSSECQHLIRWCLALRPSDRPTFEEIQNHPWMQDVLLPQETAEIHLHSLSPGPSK
# T7 sequence (Q9Y6M4 whole entry): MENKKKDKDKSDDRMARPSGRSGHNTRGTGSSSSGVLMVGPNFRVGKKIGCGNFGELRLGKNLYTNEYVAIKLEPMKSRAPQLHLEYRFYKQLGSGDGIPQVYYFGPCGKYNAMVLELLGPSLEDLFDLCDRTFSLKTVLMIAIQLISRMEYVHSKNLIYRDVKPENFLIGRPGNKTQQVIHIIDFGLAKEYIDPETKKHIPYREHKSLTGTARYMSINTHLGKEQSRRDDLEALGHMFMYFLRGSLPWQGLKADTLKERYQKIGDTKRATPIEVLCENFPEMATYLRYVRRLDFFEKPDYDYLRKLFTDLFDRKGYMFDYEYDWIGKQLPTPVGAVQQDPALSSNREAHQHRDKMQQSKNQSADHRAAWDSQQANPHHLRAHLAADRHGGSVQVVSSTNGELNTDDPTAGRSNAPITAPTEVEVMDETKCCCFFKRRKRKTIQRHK
# T5 sequence (Q9Y4K4 whole entry): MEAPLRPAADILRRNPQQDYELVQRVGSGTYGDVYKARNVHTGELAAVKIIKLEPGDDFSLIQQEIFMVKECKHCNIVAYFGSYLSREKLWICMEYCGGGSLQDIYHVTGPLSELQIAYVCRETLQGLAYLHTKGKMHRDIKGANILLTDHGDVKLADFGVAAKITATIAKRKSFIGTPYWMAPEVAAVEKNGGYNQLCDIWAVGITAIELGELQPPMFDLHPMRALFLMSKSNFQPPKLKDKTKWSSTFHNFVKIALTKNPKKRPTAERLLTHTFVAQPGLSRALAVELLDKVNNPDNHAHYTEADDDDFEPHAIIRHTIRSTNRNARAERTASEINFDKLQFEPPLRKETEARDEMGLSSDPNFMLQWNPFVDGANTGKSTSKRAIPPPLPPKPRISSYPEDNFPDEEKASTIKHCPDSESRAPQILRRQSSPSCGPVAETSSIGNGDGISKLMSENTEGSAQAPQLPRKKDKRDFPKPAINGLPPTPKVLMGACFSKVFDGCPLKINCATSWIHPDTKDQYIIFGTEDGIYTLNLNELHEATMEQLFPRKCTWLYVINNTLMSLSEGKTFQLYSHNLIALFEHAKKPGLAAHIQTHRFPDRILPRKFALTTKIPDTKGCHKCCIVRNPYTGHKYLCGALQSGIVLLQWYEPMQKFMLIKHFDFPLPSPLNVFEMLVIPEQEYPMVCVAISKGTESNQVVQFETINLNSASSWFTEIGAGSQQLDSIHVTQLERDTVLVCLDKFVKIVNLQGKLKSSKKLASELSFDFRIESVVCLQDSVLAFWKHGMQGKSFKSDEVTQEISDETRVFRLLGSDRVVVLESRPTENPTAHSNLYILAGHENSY
Compound,remaining binding at 1 µM [1] [%],remaining binding at 1 µM [2] [%],remaining binding at 1 µM [3] [%],remaining binding at 1 µM [4] [%],remaining binding at 1 µM [5] [%],remaining binding at 1 µM [6] [%],remaining binding at 1 µM [7] [%],remaining binding at 1 µM [8] [%]
"CCNc1nc(Nc2ccc(C(=O)N3CCC(N4CCOCC4)CC3)cc2OC)nc2[nH]cc(C(F)(F)F)c12 [Example 104, (4-((4-(ethylamino)-5-(trifluoromethyl)-7H-pyrrolo[2,3-d]pyrimidine-2-yl)amino)-3-methoxyphenyl)(4-morpholinopiperidine-1-yl)methanone]",98,83,80,79,100,100,90,100
"CNc1nc(Nc2ccc(C(=O)N3CCOCC3)cc2OC)nc2[nH]cc(C#N)c12 [Example 1, 2-((2-methoxy-4-(morpholine-4-carbonyl)phenyl)amino)-4-(methylamino)-7H-pyrrolo[2,3-d]pyrimidine-5-carbonitrile]",91,100,85,78,89,93,58,72
"CC1(Nc2nc(Nc3cnn([C@H]4CCN(C5COC5)C[C@@H]4F)c3Cl)nc3[nH]cc(C#N)c23)CC1 [Example 52, 2-((5-chloro-1-((3S,4S)-3-fluoro-1-(oxetane-3-yl)piperidine-4-yl)-1H-pyrazole-4-yl)amino)((1-methylcyclopropyl)amino)-7H-pyrrolo[2,3-d]pyrimidine-5-carbonitrile]",100,81,57,6.3,30,95,0.15,9.1
